Measurements: US11866707B2, “Use of non-coding RNA SNHG17 as biomarker and therapeutic target” (ZHEJIANG CANCER HOSPITAL, priority 2022, dated 2024)

What was measured:
[1] = tested on: SNHG17-overexpressing breast cancer cells (MCF-7); experiment: Sensitivity detection of breast cancer cells to fulvestrant (MTT); type: cell-based, human; settings: fulvestrant 2, 4, 8, 16 μmol/L, 48 h, SNHG17-overexpressing cells vs control cells (FIG. 5)
Protocol: MCF-7 and SNHG17 overexpressing breast cancer cells in the logarithmic growth phase were inoculated into 96-well plates (with DMEM complete medium) at a density of 3000 cells per well. Then cells were cultured in a 37° C. 5V/V % CO2 incubator until the cells adhered to the plates. Then added fulvestrant respectively, and the final concentration was 0 (cell control group), 2, 4, 8, and 16 μmol/L. Each concentration was set in 4 duplicate wells, and a blank control group was set at the same time. After being cultured for 48 hours in a 37° C., 5V/V % CO2 incubator, 20 μL of MTT (5 g/L) solution was added to each well. After culturing for 4 hours, discarded the medium and added triple solution (10 g SDS, 5 mL of isobutanol, 0.1 mL of 10M hydrochloric acid, and ddH2O to make a 100 mL solution) and incubated overnight. Then the absorbance (A570 nm) value was measured at 570 nm with an enzyme calibration. The triple solution was used as a blank control group to detect the cells' survival rate. Growth inhibition rate (%)=(control group A570 nm—experimental group A570 nm)/cell control group A570 nm×100%. The growth inhibition rate of fulvestrant on breast cancer cells is shown in FIG. 5, wherein C stands for SNHG17-overexpressing control breast cancer cells, D stands for SNHG17-overexpressing breast cancer cells, *P<0.05, **P<0.01 indicates the data had statistical significance.

[2] = tested on: SNHG17-overexpressing breast cancer cells (MCF-7); experiment: Plate colony formation experiment, fulvestrant resistance of SNHG17-overexpressing cells; type: cell-based, human; settings: medium containing 6 μmol/L fulvestrant, 15 days; SNHG17-overexpressing cells vs SNHG17-overexpressing control cells (FIG. 4)
Protocol: The above-mentioned SNHG17-overexpressing control breast cancer cells and SNHG17-overexpressing breast cancer cells were selected for experiments to detect the drug resistance to fulvestrant. 1000 well-grown cells were inoculated into a culture plate (diameter 60 mm) containing DMEM complete medium, then gently shook the culture plate to disperse the cells evenly. The cells were incubated at 37° C., 5V/V % CO2 for 15 days, and replaced complete medium every 3 days. When colonies were visible to the naked eye in the culture dish, the culture was terminated and the culture medium was discarded. After that, the cells were carefully washed twice by PBS and dried. Methanol was used for anchor cells for 15 min, then the methanol was discarded and cells were air-dried. Cells were stained with Giemsa staining solution (purchased from Merck) for 10 min, then the staining solution was slowly washed away with running water, and cells were air-dried. Experiments were divided into blank group (SNHG17-overexpressing control breast cancer stable cells, medium containing 6 μmol/L DMSO), control group (SNHG17-overexpressing control breast cancer cells, medium containing 6 μmol/L fulvestrant), overexpression group (SNHG17-overexpressing breast cancer cells, medium containing 6 μmol/L fulvestrant) 3 groups. […]

C[C@]12CC[C@@H]3c4ccc(O)cc4C[C@@H](CCCCCCCCC[S+]([O-])CCCC(F)(F)C(F)(F)F)[C@H]3[C@@H]1CC[C@@H]2O (some centres unmarked) [fulvestrant]
growth inhibition rate of fulvestrant on breast cancer cells [1]: significantly greater than that in SNHG17-overexpressing control breast cancer cells
number of colonies formed [2]: greater than that of SNHG17-overexpressing control breast cancer cells
